According to the supplement of paper PMC10307832:

Key:
Assay in all cases: relative viability (nuclei count vs DMSO), 5 days (fraction); higher = more cells survive
Irinotecan + Pictilisib = compound: CCc1c2c(nc3ccc(OC(=O)N4CCC(N5CCCCC5)CC4)cc13)-c1cc3c(c(=O)n1C2)COC(=O)[C@]3(O)CC [Irinotecan] + CS(=O)(=O)N1CCN(Cc2cc3nc(-c4cccc5[nH]ncc45)nc(N4CCOCC4)c3s2)CC1 [Pictilisib] (partner 1 µM)
Procedure, shortened: (§1)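 For relative viability, nuclei counts in treated wells were divided by those in vehicle wells. Lung cancer cell lines had been pin-tool dosed in 1536-well plates the day after seeding and cultured for 5 days, then fixed and stained in one step (final 0.05% Triton X-100, 1% formaldehyde, 1 ug/ml Hoechst) and imaged at 4×. Doses were one drug alone or a fixed anchor-drug dose plus five library-drug doses (not always all listed) in √10 steps, and values are duplicate-plate medians.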

Irinotecan + Linsitinib = compound: CCc1c2c(nc3ccc(OC(=O)N4CCC(N5CCCCC5)CC4)cc13)-c1cc3c(c(=O)n1C2)COC(=O)[C@]3(O)CC [Irinotecan] + C[C@]1(O)C[C@@H](c2nc(-c3ccc4ccc(-c5ccccc5)nc4c3)c3c(N)nccn32)C1 [Linsitinib] (partner 1 µM)
Procedure, shortened: as §1

MK-8033 + Palbociclib = compound: Cn1cc(-c2cnc3ccc4ccc(CS(=O)(=O)NCc5ccccn5)cc4c(=O)c3c2)cn1 [MK-8033] + CC(=O)c1c(C)c2cnc(Nc3ccc(N4CCNCC4)cn3)nc2n(C2CCCC2)c1=O [Palbociclib] (partner 0.5 µM)
Procedure, shortened: as §1

MK-8033 + Pemetrexed = compound: Cn1cc(-c2cnc3ccc4ccc(CS(=O)(=O)NCc5ccccn5)cc4c(=O)c3c2)cn1 [MK-8033] + Nc1nc2[nH]cc(CCc3ccc(C(=O)N[C@@H](CCC(=O)O)C(=O)O)cc3)c2c(=O)[nH]1 [Pemetrexed] (partner 0.2 µM)
Procedure, shortened: as §1

| Cell Line | relative viability (Irinotecan + Pictilisib; first compound 0.6325 µM) | relative viability (Irinotecan + Pictilisib; first compound 2 µM) | relative viability (Irinotecan + Pictilisib; first compound 6.325 µM) | relative viability (Irinotecan + Pictilisib; first compound 20 µM) | relative viability (Irinotecan + Linsitinib; first compound 0.6325 µM) | relative viability (Irinotecan + Linsitinib; first compound 2 µM) | relative viability (Irinotecan + Linsitinib; first compound 6.325 µM) | relative viability (Irinotecan + Linsitinib; first compound 20 µM) | relative viability (MK-8033 + Palbociclib; first compound 0.02 µM) | relative viability (MK-8033 + Palbociclib; first compound 0.06325 µM) | relative viability (MK-8033 + Palbociclib; first compound 0.2 µM) | relative viability (MK-8033 + Palbociclib; first compound 0.6325 µM) | relative viability (MK-8033 + Palbociclib; first compound 2 µM) | relative viability (MK-8033 + Pemetrexed; first compound 0.02 µM) | relative viability (MK-8033 + Pemetrexed; first compound 0.06325 µM) | relative viability (MK-8033 + Pemetrexed; first compound 0.2 µM) | relative viability (MK-8033 + Pemetrexed; first compound 0.6325 µM) | relative viability (MK-8033 + Pemetrexed; first compound 2 µM) |
| --- | --- | --- | --- | --- | --- | --- | --- | --- | --- | --- | --- | --- | --- | --- | --- | --- | --- | --- |
| LXF-289 | 0.745 | 0.7 | 0.206 | 0.158 | 0.951 | 0.414 | 0.2 | 0.186 | 0.612 | 0.579 | 0.61 | 0.597 | 0.596 | 0.963 | 0.874 | 0.901 | 0.883 | 0.837 |
| LK-2 | 0.558 | 0.58 | 0.34 | 0.294 | 0.468 | 0.529 | 0.309 | 0.165 | 0.623 | 0.528 | 0.686 | 0.885 | 0.502 | 0.329 | 0.263 | 0.239 | 0.335 | 0.258 |
| NCI-H2126 |  | 0.41 | 0.286 | 0.335 |  | 0.414 | 0.355 | 0.335 | 0.336 | 0.37 | 0.346 | 0.353 | 0.311 | 0.674 | 0.661 | 0.613 | 0.689 | 0.649 |
| NCI-H3122 | 0.514 | 0.349 | 0.202 | 0.174 | 0.902 | 0.293 | 0.24 | 0.22 | 0.155 | 0.173 | 0.19 | 0.191 | 0.223 | 0.201 | 0.201 | 0.195 | 0.188 | 0.198 |
| NCI-H1355 | 0.201 | 0.407 | 0.202 | 0.238 | 0.671 | 0.403 | 0.2 | 0.201 | 0.372 | 0.379 | 0.375 | 0.415 | 0.381 | 1.03 | 0.996 | 0.965 | 1.05 | 1 |
| NCI-H1792 | 0.281 | 0.199 | 0.106 | 0.11 | 0.613 | 0.528 | 0.21 | 0.107 | 0.637 | 0.63 | 0.557 | 0.606 | 0.615 | 0.789 | 0.64 | 0.62 | 0.69 | 0.872 |
| NCI-H661 | 0.413 | 0.349 | 0.262 | 0.33 | 0.583 | 0.476 | 0.334 | 0.256 | 0.389 | 0.369 | 0.403 | 0.397 | 0.413 | 0.907 | 0.867 | 0.876 | 0.909 | 0.905 |
